{
  "source": "patent US4430435A",
  "about": "(priority 1980, dated 1984)",
  "key": {"calf caudate [1]": {"biological_target": "T1, calf caudate (Bos taurus, UniProt P20288)", "T1 construct": "homogenised calf caudate (8 mg/ml); from tissue; host or cells: calf caudate, homogenised", "T1 sequence (P20288 whole entry)": "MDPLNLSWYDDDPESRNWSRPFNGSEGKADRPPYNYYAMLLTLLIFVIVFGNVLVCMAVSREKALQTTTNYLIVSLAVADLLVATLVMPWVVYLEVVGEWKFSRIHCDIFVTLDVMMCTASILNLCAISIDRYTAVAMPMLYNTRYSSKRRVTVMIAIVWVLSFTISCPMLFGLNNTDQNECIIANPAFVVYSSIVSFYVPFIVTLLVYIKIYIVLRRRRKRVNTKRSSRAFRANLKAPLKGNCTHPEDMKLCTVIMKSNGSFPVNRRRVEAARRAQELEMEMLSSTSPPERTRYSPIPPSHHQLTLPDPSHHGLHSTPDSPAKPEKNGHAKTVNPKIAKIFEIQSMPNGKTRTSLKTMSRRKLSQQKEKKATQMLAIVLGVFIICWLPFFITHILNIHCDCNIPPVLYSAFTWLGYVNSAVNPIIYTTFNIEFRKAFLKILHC", "type": "binding"}, "β-Adrenergic Receptors": {"system": "β-Adrenergic Receptors", "type": "binding, rat"}, "[2]": {"assay": "Radioreceptor assay for tricyclic antidepressant drugs: binding of 3H-desipramine to talc in the presence of serum or buffer, with blocking agent"}, "calf caudate [3]": {"biological_target": "T1, calf caudate", "assay": "Recovery of haloperidol added to drug-free serum, measured by the 3H-spiperone/calf caudate radioreceptor assay", "type": "binding", "details": "in the presence of TBEP"}},
  "note": "Several values for one entry are separate records, joined by “and”; a condition that tells them apart may be missing. Equal entries are not always repeated.",
  "data": [
    {"smiles": "CCOP(=O)(OCC)OCC", "note": "[TEP, triethyl phosphate]", "values": [
      {"measurement": "% 3H-Spiperone Bound in Buffer", "setting": "calf caudate [1]", "value": "37.9% and 37.5% and 37.1% and 36.6% and 36.8% and 35.0%"},
      {"measurement": "% 3H-Spiperone Bound in Serum", "setting": "calf caudate [1]", "value": "27.8% and 28.6% and 29.1% and 30.1% and 30.6% and 29.8%"},
      {"measurement": "% Change in Buffer", "setting": "calf caudate [1]", "value": "0% and -1% and -2% and -3% and -7%"},
      {"measurement": "125I-HYP Bound (CPM) in Buffer", "setting": "β-Adrenergic Receptors", "value": "8367 CPM and 7988 CPM and 7972 CPM and 7931 CPM and 7613 CPM"},
      {"measurement": "125I-HYP Bound (CPM) in Serum", "setting": "β-Adrenergic Receptors", "value": "3812 CPM and 4131 CPM and 6011 CPM and 5903 CPM and 5881 CPM"},
      {"measurement": "% Change in Buffer", "setting": "β-Adrenergic Receptors", "value": "-1% and -5% and -6% and -10%"},
      {"measurement": "3H-Desipramine Bound (CPM) in Buffer", "setting": "[2]; 50 μg/ml TEP", "value": 12093, "unit": "CPM"},
      {"measurement": "3H-Desipramine Bound (CPM) in Serum", "setting": "[2]; 50 μg/ml TEP", "value": 7740, "unit": "CPM"},
      {"measurement": "% Change in Buffer", "setting": "[2]; 50 μg/ml TEP", "value": -2, "unit": "%"},
      {"measurement": "% Change in Serum", "setting": "[2]; 50 μg/ml TEP", "value": "+10%"},
      {"measurement": "3H-Desipramine Bound (CPM) in Buffer", "setting": "[2]; 100 μg/ml TEP", "value": 11748, "unit": "CPM"},
      {"measurement": "3H-Desipramine Bound (CPM) in Serum", "setting": "[2]; 100 μg/ml TEP", "value": 8276, "unit": "CPM"},
      {"measurement": "% Change in Buffer", "setting": "[2]; 100 μg/ml TEP", "value": -5, "unit": "%"},
      {"measurement": "% Change in Serum", "setting": "[2]; 100 μg/ml TEP", "value": "+18%"},
      {"measurement": "3H-Desipramine Bound (CPM) in Buffer", "setting": "[2]; 500 μg/ml TEP", "value": 13024, "unit": "CPM"},
      {"measurement": "3H-Desipramine Bound (CPM) in Serum", "setting": "[2]; 500 μg/ml TEP", "value": 9204, "unit": "CPM"},
      {"measurement": "% Change in Buffer", "setting": "[2]; 500 μg/ml TEP", "value": "+6%"},
      {"measurement": "% Change in Serum", "setting": "[2]; 500 μg/ml TEP", "value": "+31%"},
      {"measurement": "3H-Desipramine Bound (CPM) in Buffer", "setting": "[2]; 750 μg/ml TEP", "value": 11507, "unit": "CPM"},
      {"measurement": "3H-Desipramine Bound (CPM) in Serum", "setting": "[2]; 750 μg/ml TEP", "value": 9198, "unit": "CPM"},
      {"measurement": "% Change in Buffer", "setting": "[2]; 750 μg/ml TEP", "value": -6, "unit": "%"},
      {"measurement": "% Change in Serum", "setting": "[2]; 750 μg/ml TEP", "value": "+30%"},
      {"measurement": "3H-Desipramine Bound (CPM) in Buffer", "setting": "[2]; 1000 μg/ml TEP", "value": 11925, "unit": "CPM"},
      {"measurement": "3H-Desipramine Bound (CPM) in Serum", "setting": "[2]; 1000 μg/ml TEP", "value": 9745, "unit": "CPM"},
      {"measurement": "% Change in Buffer", "setting": "[2]; 1000 μg/ml TEP", "value": -3, "unit": "%"},
      {"measurement": "% Change in Serum", "setting": "[2]; 1000 μg/ml TEP", "value": "+39%"},
      {"measurement": "3H-Desipramine Bound (CPM) in Buffer", "setting": "[2]; 1250 μg/ml TEP", "value": 12362, "unit": "CPM"},
      {"measurement": "3H-Desipramine Bound (CPM) in Serum", "setting": "[2]; 1250 μg/ml TEP", "value": 10016, "unit": "CPM"},
      {"measurement": "% Change in Buffer", "setting": "[2]; 1250 μg/ml TEP", "value": 0, "unit": "%"},
      {"measurement": "% Change in Serum", "setting": "[2]; 1250 μg/ml TEP", "value": "+43%"}
    ]},
    {"smiles": "CCCCOCCOP(=O)(OCCOCCCC)OCCOCCCC", "note": "[TBEP, tris(butoxyethyl) phosphate]", "values": [
      {"measurement": "% 3H-Spiperone Bound in Buffer", "setting": "calf caudate [1]", "value": "35.0% and 35.3% and 35.6% and 32.5% and 32.4% and 31.6% and 27.7%"},
      {"measurement": "% 3H-Spiperone Bound in Serum", "setting": "calf caudate [1]", "value": "23.0% and 26.2% and 27.8% and 29.1% and 27.2% and 26.1% and 24.3%"},
      {"measurement": "% of 3H-Spiperone Bound, TBEP present", "setting": "calf caudate [1]", "value": "31.9% and 32.2% and 31.5% and 33.8% and 33.5% and 32.8% and 31.8%"},
      {"measurement": "% of 3H-Spiperone Bound, TBEP present, mean (X)", "setting": "calf caudate [1]", "value": 32.4, "unit": "%"},
      {"measurement": "between sample variability (CV) in 3H-spiperone binding", "setting": "calf caudate [1]", "value": "reduced"},
      {"measurement": "variability (CV) in the recovery of added haloperidol", "setting": "calf caudate [3]", "value": "reduced"},
      {"measurement": "125I-HYP Bound (CPM) in Buffer", "setting": "β-Adrenergic Receptors", "value": "8513 CPM and 8226 CPM and 8729 CPM and 8510 CPM and 8630 CPM and 8412 CPM"}
    ]}
  ]
}
